Measurements from US20170275666A1, “Methods for Preparing Rebaudioside I and Uses” (The Coca-Cola Company, priority 2014, published 2017).
Where a chain is given by its changes, count along the chain named. Where “and” joins values, the source holds several entries; their conditions need not be identical. Equal entries are not always repeated.

Experiments:
[1] = Sensory characteristics of rebaudioside I compared to rebaudioside M (taste panel); type: in vivo; settings: 400 ppm in water, approximately 4° C., seven panelists
Protocol: Rebaudioside I was evaluated to determine its sensory profile, including in comparison to rebaudioside M.
Samples were prepared at a concentration of 400 ppm in a water matrix. Analysis to determine the actual concentration of the samples was preformed.
Seven panelists participated in testing of rebaudioside I and rebaudioside M. Samples were served at approximately 4° C. Panelists were instructed to take 1 sip of the sample (10 mL), hold in mouth for 5 seconds, expectorate and rate the taste attributes, as described below. A 5 minute break was placed between each sample and panelist were instructed to cleanse their palates with at least 1 bite of an unsalted cracker and 2 sips of filtered water. Samples were randomized and each sample was present in replicate in the session.
Attributes evaluated included: sweet taste intensity (maximum level of sweeteness in mouth during 5 seconds); bitter taste intensity (maximum level of bitterness in mouth during 5 seconds); overall maximum sweet intensity (maximum sweet intensity experienced from time sip is taken up to 1 minute); overall maximum bitter intensity (maximum bitter intensity experienced from time sip is taken up to 1 minute); other intensity (intensity of any taste, aromatic or mouth feel other than sweet and bitter (e.g., metallic, plastic, licorice, etc.); sweet linger intensity (sweet intensity 1 minute after expectoring the sample); and bitter aftertaste intensity (bitter intensity one minute after expectoring the sample).
Fishers LSD was used to compare significant differences between the mean scores.

[2] = Taste properties of beverage formulations (flavored black tea, enhanced water, lemon-lime flavored sparkling beverage); type: in vivo
Protocol: Reb I levels are evaluated in an zero calorie Lemon-lime-flavored sparking beverage base to determine the effect of increasing sweetness. Samples of the Lemon-lime-flavored sparkling beverage with Reb I in amounts between 400 and 750 ppm (in 50 ppm increments) and 3.5% allulose are prepared. […] Samples having 550 ppm and 600 ppm Reb I are found to be the closest in sweetness level to an 10.0 Brix HFCS sweetened Lemon-lime flavored sparkling beverage formulation.

[3] = Activity of in-vivo preparations of UGT91D2, transformation of Rubusoside to Stevioside; type: biochemical; settings: per mL of lysate, 30° C., pH 7.2
Protocol: Activity tests were performed at 5 mL scale with 1000 μL of lysate for the transformation of Rubusoside to Stevioside using 0.5 mM of substrate, 2.5 mM of UDP-Glucose and 3 mM MgCl2 in 50 mM Sodium Phosphate buffer at pH 7.2. Samples were taken and analyzed by HPLC.

[4] = Directed evolution of UGT76G1, conversion of Rebaudioside D to Rebaudioside M (round 1); type: biochemical; settings: 0.5 mM Rebaudioside D, 2.5 mM UDP-Glucose, 100 μL fresh lysate, 30° C., pH 7.2
Method in brief: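 UGT76G1 variants carrying 3-5 designed mutations were expressed in E. coli BL21(DE3) (pET30a+, 44 h at 20° C) and lysed. Lysate was reacted with 0.5 mM Reb D, 2.5 mM UDP-glucose, 3 mM MgCl2 in 50 mM phosphate pH 7.2 at 30° C; HPLC-CAD sampling at 2, 4, 7, 24 h gave conversion and initial rate.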

## C=C1C[C@@]23CC[C@H]4[C@@](C)(CCC[C@@]4(C)C(=O)O[C@@H]4O[C@H](CO)[C@@H](O)[C@H](O[C@@H]5O[C@H](CO)[C@@H](O)[C@H](O)[C@H]5O)[C@H]4O[C@@H]4O[C@H](CO)[C@@H](O)[C@H](O)[C@H]4O)[C@@H]2CC[C@]1(O[C@@H]1O[C@H](CO)[C@@H](O)[C@H](O[C@@H]2O[C@H](CO)[C@@H](O)[C@H](O)[C@H]2O)[C@H]1O[C@@H]1O[C@H](CO)[C@@H](O)[C@H](O)[C@H]1O)C3 [Reb M, Rebaudioside M, reference compound]
[1]
  Bitter Aftertaste Intensity: 0.8
  Bitter Taste Intensity: 1.0
  Other Intensity: 0.9
  Overall Max Bitterness Intensity: 1.6
  Overall Max Sweetness Intensity: 8.0
  Sweet Linger Intensity: 4.9
  Sweet Taste Intensity: 7.4

## C=C1C[C@@]23CC[C@H]4[C@@](C)(CCC[C@@]4(C)C(=O)OC4OC(CO)C(O)C(OC5OC(CO)C(O)C(O)C5O)C4O)[C@@H]2CCC1(OC1OC(CO)C(O)C(OC2OC(CO)C(O)C(O)C2O)C1OC1OC(CO)C(O)C(O)C1O)C3 (some centres unmarked) [Reb I]
[1]
  Bitter Aftertaste Intensity: 1.3
  Bitter Taste Intensity: 1.4
  Other Intensity: 1.3
  Overall Max Bitterness Intensity: 2.1
  Overall Max Sweetness Intensity: 7.2
  Sweet Linger Intensity: 3.5
  Sweet Taste Intensity: 5.9
[1]; listed as Rebaudioside I
  Overall Max Sweetness Intensity: lower
  Sweet Linger Intensity: lower
  Sweet Taste Intensity: lower
[2]; flavored zero calorie black tea drink, 275 ppm
  taste properties compared to Reb A drink: much cleaner in finish with less sweetness linger and a more rounded overall sweetness profile
[2]; zero calorie Lemon-lime-flavored sparkling beverage with 3.5% allulose
  Reb I concentration closest in sweetness level to 10.0 Brix HFCS sweetened Lemon-lime flavored sparkling beverage: 550 ppm and 600 ppm
[2]; zero calorie Lemon-lime-flavored sparkling beverage, 400 to 750 ppm Reb I and 3.5% allulose
  taste compared to Reb A-containing formulations: significantly better than comparable Reb A-containing formulations
[2]; zero calorie enhanced water drink, 200 ppm
  taste properties compared to Reb A drink: cleaner in finish and has a reduced sweetness linger and a more rounded overall sweetness taste quality

B1: UGT91D2: UDP-glucosyltransferase (Genbank ACE87855.1) produced in E. coli, tested as lysate (protein, UniProt B3VI56 1-473, looked up)
UDP-glycosyltransferase 91D2: MATSDSIVDDRKQLHVATFPWLAFGHILPYLQLSKLIAEKGHKVSFLSTTRNIQRLSSHISPLINVVQLTLPRVQELPEDAEATTDVHPEDIPYLKKASDGLQPEVTRFLEQHSPDWIIYDYTHYWLPSIAASLGISRAHFSVTTPWAIAYMGPSADAMINGSDGRTTVEDLTTPPKWFPFPTKVCWRKHDLARLVPYKAPGISDGYRMGLVLKGSDCLLSKCYHEFGTQWLPLLETLHQVPVVPVGLLPPEVPGDEKDETWVSIKKWLDGKQKGSVVYVALGSEVLVSQTEVVELALGLELSGLPFVWAYRKPKGPAKSDSVELPDGFVERTRDRGLVWTSWAPQLRILSHESVCGFLTHCGSGSIVEGLMFGHPLIMLPIFGDQPLNARLLEDKQVGIEIPRNEEDGCLTKESVARSLRSVVVEKEGEIYKANARELSKIYNDTKVEKEYVSQFVDYLEKNTRAVAIDHES
modifications: E. coli lysate
notes: UDP-glucosyltransferase (Genbank ACE87855.1) produced in E. coli, tested as lysate
[3]; plasmid pET30a+, expression strain ArcticExpress (DE3)
  Transformation activity Rubusoside to Stevioside: 21 mU mL^−1
[3]; plasmid pET30a+, expression strain Tuner (DE3)
  Transformation activity Rubusoside to Stevioside: 28 mU mL^−1
[3]; plasmid pMAL, expression strain ArcticExpress
  Transformation activity Rubusoside to Stevioside: 60 mU mL^−1
[3]; plasmid pMAL, expression strain BL21
  Transformation activity Rubusoside to Stevioside: 9 mU mL^−1

B2: UGT76G1var92: UGT76G1 variant, mutations K303G_S357N_V366I_V394I_I407V (protein, UniProt Q6VAB4 1-458, looked up, variant K303G S357N V366I V394I I407V)
UDP-glycosyltransferase 76G1: MENKTETTVRRRRRIILFPVPFQGHINPILQLANVLYSKGFSITIFHTNFNKPKTSNYPHFTFRFILDNDPQDERISNLPTHGPLAGMRIPIINEHGADELRRELELLMLASEEDEEVSCLITDALWYFAQSVADSLNLRRLVLMTSSLFNFHAHVSLPQFDELGYLDPDDKTRLEEQASGFPMLKVKDIKSAYSNWQILKEILGKMIKQTKASSGVIWNSFKELEESELETVIREIPAPSFLIPLPKHLTASSSSLLDHDRTVFQWLDQQPPSSVLYVSFGSTSEVDEKDFLEIARGLVDSGQSFLWVVRPGFVKGSTWVEPLPDGFLGERGRIVKWVPQQEVLAHGAIGAFWTHNGWNSTLESICEGVPMIFSDFGLDQPLNARYMSDVLKIGVYLENGWERGEVANAIRRVMVDEEGEYIRQNARVLKQKADVSLMKGGSSYESLESLVSYISSL
[4]
  Conversion Reb D to Reb M after 24 h (%): 1.6%
  initial rate (Reb M area/min): 3.6E+05 Reb M area/min

B3: UGT76G1var95: UGT76G1 variant, mutations A33G_I295M_K303G_I335V_A385T (protein, UniProt Q6VAB4 1-458, looked up, variant A33G I295M K303G I335V A385T)
UDP-glycosyltransferase 76G1: B2 UDP-glycosyltransferase 76G1 with A33G, I295M, I335V, N357S, I366V, A385T, I394V, V407I
[4]
  Conversion Reb D to Reb M after 24 h (%): −1.3%
  initial rate (Reb M area/min): −1.7E+05 Reb M area/min

B4: UGT76G1var7: UGT76G1 variant, mutations F22L_I43V_A239V (protein, UniProt Q6VAB4 1-458, looked up, variant F22L I43V A239V)
UDP-glycosyltransferase 76G1: B2 UDP-glycosyltransferase 76G1 with F22L, I43V, A239V, G303K, N357S, I366V, I394V, V407I
[4]
  Conversion Reb D to Reb M after 24 h (%): 0.2%
  initial rate (Reb M area/min): −6.0E+04 Reb M area/min

B5: UGT76G1var96: UGT76G1 variant, mutations F22L_E229A_L243P_F377C_A385T (protein, UniProt Q6VAB4 1-458, looked up, variant F22L E229A L243P F377C A385T)
UDP-glycosyltransferase 76G1: B2 UDP-glycosyltransferase 76G1 with F22L, E229A, L243P, G303K, N357S, I366V, F377C, A385T, I394V, V407I
[4]
  Conversion Reb D to Reb M after 24 h (%): 1.2%
  initial rate (Reb M area/min): 2.7E+05 Reb M area/min

B6: UGT76G1var93: UGT76G1 variant, mutations I43V_Q266E_S375M_S389E_V394I (protein, UniProt Q6VAB4 1-458, looked up, variant I43V Q266E S375M S389E V394I)
UDP-glycosyltransferase 76G1: B2 UDP-glycosyltransferase 76G1 with I43V, Q266E, G303K, N357S, I366V, S375M, S389E, V407I
[4]
  Conversion Reb D to Reb M after 24 h (%): 1.8%
  initial rate (Reb M area/min): 4.5E+05 Reb M area/min
